Series [1] relates to Vibrio harveyi BB7X. Format: cell-based. To be noted: 40 ng/mL; for MI (mutagenic index): positive when MI ≥ 2. Here is the method: (§1) In the experiment, overnight cultures of bacterial strains BB7, BB7M, BB7X, and BB7XM were used. Each culture was centrifuged and 10 µL of V. harveyi pellets was placed in 20 mL of BOSS medium. The culture was cultivated at 30 °C until the optical density reached 0.1 at 600 nm (OD600). Then, 10 µL of test compound solution (final concentration of 40 ng/mL) was added to the bacterial culture and incubated. Incubation was continued until OD600 reached 0.3–0.4. Next, 5 × 10^6 bacterial cells were spread onto BOSS agar plates with neomycin. The plates were incubated at 30 °C for 48 h and the number of neomycin-resistant colonies was counted. […] All the experiments were analyzed in three independent repetitions. Finally, MI was calculated.

Series [2] has as its system Vibrio harveyi BB7. It is filed as cell-based. To be noted: BB7, 40 ng/mL; for MI (mutagenic index): positive when MI ≥ 2. Here is the method: as §1
In series [3] the test system is Vibrio harveyi BB7M. Format: cell-based. As to conditions: 40 ng/mL; for MI (mutagenic index): positive when MI ≥ 2. Here is the method:
as §1

Series [4] has as its system Salmonella typhimurium TA100. It is filed as cell-based. As to conditions: TA100, 40 ng/mL; for MI (mutagenic index): positive when MI ≥ 2. Here is the method:
The Ames assay was conducted by the preincubation method using S. typhimurium TA100 strain [60]. Each probe was performed in triplicate; 100 µL of the overnight bacterial culture, 50 µL of the investigated compounds at a concentration of 40 ng/mL, and 500 µL of a buffer solution were preincubated for 30 min at 37 °C and then added to 2 mL of the top agar containing histidine/biotin solution. The resulting mixture was poured onto minimal glucose plates. After 48 h incubation, the revertants were counted manually and the results were expressed as mutagenic index (MI) (MI = the number of revertant colonies induced in the tested sample/the number of spontaneous revertants in the negative control). […] DMSO served as the negative (solvent) control.

The test system of series [5] is Salmonella typhimurium TA100. Format: cell-based. As to conditions: for Inhib. (%) of mutagenicity: against NQNO 40 ng/mL; for Number of revertants, Mean ± SD (antimutagenicity): test compound plus NQNO 40 ng/mL, NQNO line = mutagen alone. An excerpt: (§2) Triplicate plates were set up with each test compound concentration and the entire experiment was repeated twice.

Series [6] concerns Vibrio harveyi BB7XM. Kind of series: Vibrio harveyi mutagenicity test, BB7XM. Format: cell-based. As to conditions: 40 ng/mL; for MI (mutagenic index): positive when MI ≥ 2. Here is the method:
as §1

The test system of series [7] is Vibrio harveyi BB7XM. Format: cell-based. To be noted: for Inhib. (%) of mutagenicity: against NQNO 40 ng/mL; for Number of revertants, Mean ± SD (antimutagenicity): test compound plus NQNO 40 ng/mL, NQNO line = mutagen alone. Here is the method:
as §1, §2
(§3) The inhibition percentage of mutagenicity was calculated as described above in the Ames antimutagenicity assay procedure.

Series [8] deals with Vibrio harveyi BB7X. Format: cell-based. As to conditions: for Inhib. (%) of mutagenicity: against NQNO 40 ng/mL; for Number of revertants, Mean ± SD (antimutagenicity): test compound plus NQNO 40 ng/mL, NQNO line = mutagen alone. Here is the method:
as §1, §2, §3

The test system of series [9] is Vibrio harveyi BB7. Format: cell-based. To be noted: for Inhib. (%) of mutagenicity: against NQNO 40 ng/mL; for Number of revertants, Mean ± SD (antimutagenicity): test compound plus NQNO 40 ng/mL, NQNO line = mutagen alone. Here is the method: as §1, §2, §3
The test system of series [10] is Vibrio harveyi BB7M. It is filed as cell-based. As to conditions: for Inhib. (%) of mutagenicity: against NQNO 40 ng/mL; for Number of revertants, Mean ± SD (antimutagenicity): test compound plus NQNO 40 ng/mL, NQNO line = mutagen alone. Here is the method: as §1, §2, §3
Series [11] deals with rats. Details: unit not given beside the values. To be noted: cited from earlier work.
The subject of series [12] is mice. Set-up: method as in PMID 25446027. As to conditions: i.p., dose protecting 50% of animals against seizures, in mg/kg; cited from earlier work.
Series [13] has as its system rats. Set-up: method as in PMID 25446027. To be noted: p.o., in mg/kg; cited from earlier work.
Series [14] concerns mice. As to conditions: cited from earlier work.
In series [15] the test system is mice. Details: method as in PMID 25446027. As to conditions: i.p., printed in the ED50(MES) column; cited from earlier work.
Series [16] has as its target recombinant human P-gp membranes (Homo sapiens, UniProt P08183). Nature of the series: P-gp ATPase activity assay (P-gp-Glo). To be noted: compounds 10–100 µM, verapamil 100 µM; 5 mM Mg ATP, 37 °C, 45 min. Here is the method: The changes in the ATPase activity of P-gp were determined by using the P-gp-Glo TM assay system (Promega). […] When P-gp ATPase activity is inhibited, ATP accumulates and becomes a substrate for luciferase, with a consequent increase in luminescence. The tested compounds at increasing concentration (10–100 µM) were incubated with 5 mM Mg ATP and 25 µg recombinant human P-gp membranes at 37 °C for 45 min. The luminescence signal was started by adding ATP detection buffer. After incubation at room temperature for 25 min, the samples were read in white 96-well plates on a multi-plate reader (BIOTEK).

In series [17] the test system is human glioblastoma astrocytoma cell line U373. Nature of the series: MTT viability test on human glioblastoma cells. It is filed as cell-based. To be noted: U373, 10, 25, 50 or 100 µM, 24 h; listed as racemic compound. Here is the method:
Astrocyte cell line (ATCC, CRL-2541), human glioblastoma astrocytoma cell line U373 (ATCC, HTB17-1055), and human hepatoma HepG2 cells (ATCC, HB-8065) were used in the study. The cells were cultured in standard conditions (37 °C, 5% CO2), in EMEM medium with 2 mM glutamine and 1% non-essential amino acids, all supplemented with 10% FBS and antibiotics (penicillin–streptomycin; 10,000 U/mL; final concentration in culture medium was 1%).
The cells were seeded at a density of 1 × 10^4 in 96-well plates. Following overnight culture, the cells were treated with increasing doses of compounds 1–3 (i.e., 10, 25, 50, or 100 μM) and incubated for 24 h. Next, 10 µL of MTT (3-(4,5-dimethylthiazolyl-2)-2,5-diphenyltetrazolium bromide) reagent (Cayman) was added to each well and after 3 h of incubation (37 °C, 5% CO2) the medium was aspirated, and the formazan produced in the cells appeared as dark crystals at the bottom of the wells. Subsequently, crystal dissolving solution (Cayman) was added to each well and the optical density (OD) was determined at 570 nm on a plate reader (BIOTEK). Doxorubicin (DOX) was used as a positive control. When hepatotoxicity of test compounds was evaluated, the morphology of the cells was also determined using a bright-field inverted microscope (Nikon).
On the technique in general: Tetrazolium assays rely on reduction of a dye to a coloured formazan, in cell work by metabolically active cells.

Setting [18] is: mice, i.p., dose producing toxicity in 50% of animals.
The mark [19] stands for this setting: mice, i.p., value printed in the scMet line.

Each structure is given as a SMILES string. Read-outs that look alike come from different tables or passages of the source. Marks after values point to notes of the source that are not given here.

Chain of recombinant human P-gp membranes (P08183 whole entry): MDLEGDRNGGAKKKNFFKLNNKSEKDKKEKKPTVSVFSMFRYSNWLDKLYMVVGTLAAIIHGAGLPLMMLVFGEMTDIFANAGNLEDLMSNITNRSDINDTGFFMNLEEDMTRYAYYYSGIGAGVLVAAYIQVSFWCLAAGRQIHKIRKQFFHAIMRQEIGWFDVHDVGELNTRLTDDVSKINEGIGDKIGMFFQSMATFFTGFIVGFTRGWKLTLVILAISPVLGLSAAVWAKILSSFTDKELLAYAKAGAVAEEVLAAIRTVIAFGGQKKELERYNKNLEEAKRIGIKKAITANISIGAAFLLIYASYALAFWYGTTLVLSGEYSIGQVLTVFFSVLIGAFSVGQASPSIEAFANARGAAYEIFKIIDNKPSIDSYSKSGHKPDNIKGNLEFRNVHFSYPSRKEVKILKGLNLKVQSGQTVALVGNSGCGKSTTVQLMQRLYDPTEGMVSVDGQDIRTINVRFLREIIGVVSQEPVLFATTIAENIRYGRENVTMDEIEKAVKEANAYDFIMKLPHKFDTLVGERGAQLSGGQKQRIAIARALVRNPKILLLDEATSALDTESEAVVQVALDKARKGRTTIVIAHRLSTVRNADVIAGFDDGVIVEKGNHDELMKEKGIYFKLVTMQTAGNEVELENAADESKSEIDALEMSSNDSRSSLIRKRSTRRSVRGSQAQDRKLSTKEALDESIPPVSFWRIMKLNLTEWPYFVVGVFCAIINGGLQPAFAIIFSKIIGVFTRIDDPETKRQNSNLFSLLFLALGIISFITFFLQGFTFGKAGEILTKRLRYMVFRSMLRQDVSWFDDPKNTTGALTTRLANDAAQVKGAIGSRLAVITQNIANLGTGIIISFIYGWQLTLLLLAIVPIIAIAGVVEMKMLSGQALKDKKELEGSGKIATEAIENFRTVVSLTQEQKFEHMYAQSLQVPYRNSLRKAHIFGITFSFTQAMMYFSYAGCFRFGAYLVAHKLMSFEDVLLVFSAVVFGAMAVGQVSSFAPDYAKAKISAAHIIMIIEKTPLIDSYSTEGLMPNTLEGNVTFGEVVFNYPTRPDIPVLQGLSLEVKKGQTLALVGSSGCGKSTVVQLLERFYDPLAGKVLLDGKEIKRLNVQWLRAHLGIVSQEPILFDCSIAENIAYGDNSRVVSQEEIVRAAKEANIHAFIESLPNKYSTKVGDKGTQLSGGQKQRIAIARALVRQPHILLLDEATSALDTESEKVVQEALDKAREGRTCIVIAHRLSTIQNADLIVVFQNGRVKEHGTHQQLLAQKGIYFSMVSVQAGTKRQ

For `Cc1cc(OCCN[C@H]2CCCC[C@@H]2O)ccc1Cl` [Compound 2], the “Number of revertants, Mean ± SD” value in series [1] is 10 ± 6; in series [2], 23 ± 5; in series [3] it was 23 ± 3; in series [4] it was 3 ± 1; in [6], 10 ± 3. Also, the “MI (mutagenic index)” value in series [1] is listed as 0.6; in series [2], 1.2; in [3], 1.1; in series [4] it was 0.2; in [6], 0.9. For the same compound, the “Inhib. (%) of mutagenicity” value in series [5] is listed as “(38) %”; in series [7], “(40) %”; in [8] it was “(30) %”; in [9], “(38) %”; in series [10], “(41) %”. Moreover, the “Number of revertants, Mean ± SD (antimutagenicity)” value in series [5] was 14 ± 3; in [7] it was 14 ± 4; in series [8], 21 ± 3; in [9] it was 23 ± 4; in series [10] it was 20 ± 4.

In the case of `CCCC(CCC)C(=O)O` [VPA, valproate], in series [11] (rat, in vivo, po), the TD50 is 859 ^^. Besides, the figures for the “ED50(MES)” value in series [12] and in [13] were 287 ^# and 395 ^^, respectively.

Turning to `Cc1cc(OCCN[C@@H]2CCCC[C@H]2O)ccc1Cl` [Compound 1], the “Number of revertants, Mean ± SD” value in series [1] came out at 16 ± 5; in [2], 21 ± 3; in series [3], 22 ± 3; in [4], 9 ± 4; in [6], 18 ± 2. Further, the “MI (mutagenic index)” value in series [1] amounted to 0.9; in [2] it was 1.1; in series [3] it was 1.0; in series [4] it was 0.6; in series [6] it was 1.6. In addition, the TD50 was 66.03 ^# in series [14] (setting [18]) and 66.03 ^#scMet in [14] (setting [19]). In [15], the “ED50 (scMet)” value is listed as >90.00 ^#scMet. For the same compound, the “Inhib. (%) of mutagenicity” value in [5] was “(27) %”; in [7] it was “(35) %”; in series [8] it was “(31) %”; in series [9] it was “(32) %”; in series [10] it was “(37) %”. Also, the “Number of revertants, Mean ± SD (antimutagenicity)” value came to 16 ± 2 in [5]; 16 ± 2 in series [7]; 20 ± 4 in series [8]; 26 ± 3 in [9]; 22 ± 2 in series [10]. For the same compound, the “ED50(MES)” value in series [12] is listed as 38.34 ^#. Also, the “effect on P-gp ATPase activity (luminescence)” value in series [16] was “more potent”.

For the compound `O=C1NC(=O)C(c2ccccc2)(c2ccccc2)N1` [PHT, phenytoin], the TD50 in series [11] (rats, p.o.) is given as >500 ^^. In addition, the entries for the “ED50(MES)” value in [12] and in series [13] were 6.48 ^# and 32.2 ^^, respectively.

`NC(=O)N1c2ccccc2C=Cc2ccccc21` [CBZ, carbamazepine]: the TD50 in [14] (mouse, in vivo, ip) is given as 47.8 ^#. Besides, the “ED50(MES)” value in series [12] is given as 9.85 ^#; in series [13] it was 3.57 ^^.

Turning to `Cc1cc(OCCNC2CCCCC2O)ccc1Cl` (stereo not drawn) [Compound 3], the “Number of revertants, Mean ± SD” value in series [1] is 13 ± 4; in series [2], 23 ± 3; in [3] it was 27 ± 4; in series [4], 6 ± 3; in [6], 15 ± 4. Moreover, the “MI (mutagenic index)” value in series [1] stood at 1.0; in series [2], 1.4; in series [3], 1.7; in series [4] it was 0.4; in series [6], 1.4. The TD50 in [14] (setting [18]) was 71.04 ^#; in series [14] (setting [19]), 71.04 ^#scMet; in [11] (rats, p.o.), >250 ^^. The “ED50 (scMet)” value in series [15] was >150 ^#scMet. In addition, the “cytotoxicity against human glioblastoma cells (MTT viability)” value in series [17] was “less cytotoxic than the two enantiomers”. The “Inhib. (%) of mutagenicity” value in series [5] is recorded as “(41) %”; in series [7], “(57) %”; in [8] it was “(29) %”; in series [9], “(51) %”; in [10], “(36) %”. In addition, the “Number of revertants, Mean ± SD (antimutagenicity)” value in series [5] worked out at 13 ± 3; in [7], 10 ± 4; in [8], 21 ± 4; in series [9], 19 ± 3; in series [10], 22 ± 5. For the same compound, the “ED50(MES)” value in series [12] is listed as 25.05 ^#; in [13], 99.25 ^^.

Source of the values: PMC6651381 (Molecules, 2019).
